Measured values taken from US6183736A, “Small peptides with antipathogenic activity, treated plants and methods for treating same” (USDA/ARS Southern Regional Research Center, priority 1999, dated 2001).
Where two headings read alike, the source gives them in different places. Residues, ends and D or L forms follow the SMILES beside them. No end group written: not given here.

How the values were obtained:
Aspergillus flavus [1] = experiment: Disc plate diffusion assay; format: cell-based; settings: purified peptide on filter paper disc
Procedure: Mycelium plugs from actively growing fungal cultures were placed in the center of the petri plate. After incubation at 27° C. to allow vegetative growth, samples were applied on sterile filter paper discs laid on the agar surface. Precipitation with ammonium sulfate. The 7th day culture filtrate was sequentially precipitated with 20, 40, 60 and 80% ammonium sulfate. […] After complete purification of the antifungal peptides as described in example 8, removing salt by purification on a […] cartridge (waters) and freeze drying, both peptides were quantified by weight. […] The antifungal assays are described in example 2.

Aspergillus flavus [2] = format: cell-based
Procedure: Description of the method for the antifungal assays. […] Each well contained 100 μl Potato Dextrose Agar (PDA, Difco Laboratories) and 100 μl of sample and was inoculated with 500 spores of Aspergillus flavus. Fungal growth was monitored by reading optical density (O.D.) at 560 nm (Dynatech microplate reader). […] After complete purification of the antifungal peptides as described in example 8, removing salt by purification on a […] cartridge (waters) and freeze drying, both peptides were quantified by weight. […] The antifungal assays are described in example 2.

Aspergillus niger [3] = settings: cited from earlier work
Candida albicans [4] = settings: cited from earlier work
Fusarium oxysporum [5] = settings: cited from earlier work
Kluyveromyces bulgaris [6] = settings: cited from earlier work
Saccharomyces cerevisae = settings: cited from earlier work
Absydia corymbifera = settings: cited from earlier work
bacteria = settings: cited from earlier work
[7] = test system: various yeasts, fungi and phytopathogenic fungi; settings: cited from earlier work
Saccharomyces cerevisiae = settings: cited from earlier work
Sclerotina sclerotiorum = settings: cited from earlier work
Stemphylium radicinum = settings: cited from earlier work
Penicillium chysogenum = settings: cited from earlier work
Bacillus cereus = settings: cited from earlier work
Candida tropicalis = settings: cited from earlier work
Micrococcus luteus [8] = settings: cited from earlier work
Candida albicans [9] = settings: cited from earlier work; remark: listed apart in the source
Brucella brochiseptica = settings: cited from earlier work
Neurospora crassa = settings: cited from earlier work
Pleospora herbarum = settings: cited from earlier work
Mycosphaerella pinodes = settings: cited from earlier work
Azotobacter vinelandii = settings: cited from earlier work
Sclerotina fructigena = settings: cited from earlier work
Staphylococcus aureus = settings: cited from earlier work
Streptomyces albus G = settings: cited from earlier work
[10] = test system: Trichophyton mentagrophytes; settings: cited from earlier work
Escherichia coli K12 = settings: cited from earlier work
Sarcinia lutea = settings: cited from earlier work
Aspergillus niger [11] = settings: cited from earlier work; remark: listed apart in the source
Rhodotorula pillimanae = settings: cited from earlier work
Botrytis cinerea = settings: cited from earlier work
Fusarium oxysporum [12] = settings: cited from earlier work; remark: listed apart in the source
Kluyveromyces bulgaris [13] = settings: cited from earlier work; remark: listed apart in the source
[14] = test system: Cladosporium cladosporioides; settings: cited from earlier work
Micrococcus luteus [15] = settings: cited from earlier work; remark: listed apart in the source
[16] = test system: Micrococcus luteus protoplast; settings: cited from earlier work
Ophiostoma ulmi = settings: cited from earlier work
Ceratocystis fagacearum = settings: cited from earlier work
Verticillium dahliae = settings: cited from earlier work
Cryphonectria parasitica = settings: cited from earlier work

## CCCCCCCCCCCCC[C@@H]1CC(=O)N[C@@H](CC(N)=O)C(=O)N[C@H](Cc2ccc(O)cc2)C(=O)N[C@H](CC(N)=O)C(=O)N2CCC[C@H]2C(=O)N[C@@H](CCC(=O)O)C(=O)N[C@H](CO)C(=O)N[C@@H]([C@@H](C)O)C(=O)N1 [a2] (HELM PEPTIDE1{E.[dS].T.[CCCCCCCCCCCCC[C@H](CC(=O)[*:2])N[*:1]].N.[dY].[dN].P}$PEPTIDE1,PEPTIDE1,1:R1-8:R2$$$V2.0)
Aspergillus flavus [1]
  Disc plate diffusion assay Minimal amount to inhibit hyphal growth: 3 µg
Aspergillus flavus [2]
  Microtiter plate Minimal inhibitory concentration (MIC): 130 µM

## Bacillomycin D (NYNPEST; also: cyclic lipopeptide with β-amino fatty acid, ring closure not described) [iturin lipopeptide: Asn Tyr Asn Pro Glu Ser Thr with β amino acid n-C14, i-C15, a-C15]
Aspergillus niger [3]
  Antifungal activity: antifungal
Candida albicans [4]
  Antifungal activity: antifungal
Fusarium oxysporum [5]
  Antifungal activity: antifungal
Kluyveromyces bulgaris [6]
  Antifungal activity: antifungal
Saccharomyces cerevisae
  Antifungal activity: antifungal
Absydia corymbifera
  Antifungal activity: antifungal

## Bacillomycin F (NYNQPNT; also: cyclic lipopeptide with β-amino fatty acid, ring closure not described) [iturin lipopeptide: Asn Tyr Asn Gln Pro Asn Thr with β amino acid i-C16, i-C17, a-C17]
bacteria
  Antibacterial activity: weak antibacterial activity
[7]
  Antifungal activity: strong antifungal activity

## Bacillomycin Fa
Saccharomyces cerevisiae
  MIC: 10 µg/mL
Sclerotina sclerotiorum
  MIC: 50 µg/mL
Stemphylium radicinum
  MIC: 320 µg/mL
Penicillium chysogenum
  MIC: 20 µg/mL
Bacillus cereus
  MIC: > 400 µg/mL
Candida tropicalis
  MIC: 40 µg/mL
Micrococcus luteus [8]
  MIC: 200 µg/mL
Candida albicans [9]
  MIC: 40 µg/mL
Brucella brochiseptica
  MIC: > 400 µg/mL
Neurospora crassa
  MIC: 80 µg/mL
Pleospora herbarum
  MIC: 10 µg/mL
Mycosphaerella pinodes
  MIC: 10 µg/mL
Azotobacter vinelandii
  MIC: > 400 µg/mL
Sclerotina fructigena
  MIC: 40 µg/mL
Staphylococcus aureus
  MIC: > 400 µg/mL
Streptomyces albus G
  MIC: > 400 µg/mL
[10]
  MIC: 20 µg/mL
Escherichia coli K12
  MIC: > 400 µg/mL
Sarcinia lutea
  MIC: > 400 µg/mL
Aspergillus niger [11]
  MIC: 40 µg/mL
Rhodotorula pillimanae
  MIC: 80 µg/mL
Botrytis cinerea
  MIC: 20 µg/mL
Fusarium oxysporum [12]
  MIC: > 320 µg/mL

## Bacillomycin Fb
Saccharomyces cerevisiae
  MIC: 25 µg/mL
Candida tropicalis
  MIC: > 200 µg/mL
Kluyveromyces bulgaris [13]
  MIC: 75 µg/mL
Candida albicans [9]
  MIC: > 200 µg/mL
[14]
  MIC: 25 µg/mL
Mycosphaerella pinodes
  MIC: 100 µg/mL
Aspergillus niger [11]
  MIC: 25 µg/mL
Fusarium oxysporum [12]
  MIC: > 200 µg/mL

## Bacillomycin Fc
Saccharomyces cerevisiae
  MIC: 30 µg/mL
Candida tropicalis
  MIC: > 200 µg/mL
Kluyveromyces bulgaris [13]
  MIC: 40 µg/mL
Candida albicans [9]
  MIC: > 200 µg/mL
[14]
  MIC: 40 µg/mL
Mycosphaerella pinodes
  MIC: 30 µg/mL
Aspergillus niger [11]
  MIC: 30 µg/mL
Fusarium oxysporum [12]
  MIC: > 200 µg/mL

## Bacillomycin L (DYNSQST; also: cyclic lipopeptide with β-amino fatty acid, ring closure not described) [iturin lipopeptide: Asp Tyr Asn Ser Gln Ser Thr with β amino acid n-C14, i-C15, a-C15]
Micrococcus luteus [15]
  Inhibition of growth of Micrococcus luteus: inhibited the growth
[16]
  Lysis of Micrococcus luteus protoplast: no effect

## Bacillomycin Lc
Ophiostoma ulmi
  Antifungal activity: antifungal activity
Ceratocystis fagacearum
  Antifungal activity: antifungal activity
Verticillium dahliae
  Antifungal activity: antifungal activity
Cryphonectria parasitica
  Antifungal activity: antifungal activity

## Iturin A (NYNQPNS; also: cyclic with β-amino fatty acid, ring closure not described) [cyclic lipopeptide of Bacillus subtilis: Asn Tyr Asn Gln Pro Asn Ser with β amino acid n-C14, i-C15, a-C15]
Aspergillus flavus [1]
  Disc plate diffusion assay Minimal amount to inhibit hyphal growth: > 50 µg
Micrococcus luteus [15]
  Inhibition of growth of Micrococcus luteus: inhibited the growth
Aspergillus flavus [2]; Aspergillus flavus, 500 spores per well, O.D. 560 nm
  Microtiter plate Minimal inhibitory concentration (MIC): 250 µM
[16]
  Lysis of Micrococcus luteus protoplast: able to lyse

## Mycosubtilin (NYNQPSN; also: cyclic lipopeptide with β-amino fatty acid, ring closure not described) [Mycosubtlin, iturin lipopeptide: Asn Tyr Asn Gln Pro Ser Asn with β amino acid i-C16, a-C17]
Micrococcus luteus [15]
  Inhibition of growth of Micrococcus luteus: inhibited the growth
[16]
  Lysis of Micrococcus luteus protoplast: able to lyse

## a1: cyclic lipopeptide from B. subtilis AU195, bacillomycin D family, [M+H] 1045.5, linearised sequence STNYNPE, β-amino fatty acid believed of 15 carbons (not fully specified; also: cyclic lipopeptide, C15 β-amino fatty acid (hydroxy fatty acid at Thr suggested), sequence given after Glu-C linearisation)
Aspergillus flavus [1]
  Disc plate diffusion assay Minimal amount to inhibit hyphal growth: 15 µg
